Test results reported in PMC5663395, “Chemical Validation of Methionyl-tRNA Synthetase as a Druggable Target in Leishmania donovani” (ACS Infectious Diseases, 2017).

Molecular target: LdMetRS (Leishmania donovani, UniProt A0A3Q8IBX2)
Experiment: LdMetRS biochemical enzyme assay (BIOMOL Green)
Experimental: LdMetRS Assay Development and Kinetic Parameter Determinations
Activity of the LdMetRS enzyme was determined by monitoring levels of pyrophosphate released during the first step of the enzymatic reaction. The pyrophosphate formed was converted to two inorganic phosphate molecules using a pyrophosphatase enzyme and levels of the resulting phosphate molecules measured using the BIOMOL® Green reagent (Enzo Life Sciences) 2.
Following optimization of the assay buffer and determination of the enzyme linearity, 384-well plate based assays were carried out at room temperature in a 50 μl reaction volume containing 30 mM Tris, pH 8.0, 140 mM NaCl, 30 mM KCl, 40 mM MgCl2, 0.01% (v/v) Brij-35, 1 mM DTT, 1 U/ml pyrophosphatase, 50 nM recombinant LdMetRS, and varying concentrations of substrates. Michaelis constants for the ATP and methionine substrates were determined in an end point assay using the above buffer and enzyme conditions. Data were fitted to the modified Michaelis-Menten equations […]
Equation 1 (Hill equation): […]
Equation 2 (High substrate inhibition Michaelis-Menten equation): […]
LdMetRS Inhibitor Studies
All test compounds were solubilized in 100% DMSO to a concentration of 10 mM. To generate IC50 data for the compounds, assay ready plates containing 10-point inhibitor curves (half-log serial dilutions) were prepared using an Echo® 550 (Labcyte).
Following preparation of the inhibitor curves, assays were carried out at room temperature in clear, flat bottom, polystyrene, 384-well plates (Greiner). Each assay was performed in a 50 μl reaction volume containing 30 mM Tris; pH 8.0, 140 mM NaCl, 30 mM KCl, 40 mM MgCl2, 0.01% (v/v) Brij-35, 1 mM DTT, 1 U/ml pyrophosphatase, 50 nM recombinant LdMetRS, 50 µM methionine and 100 µM […]
Assays were performed by adding 25 μl buffer with enzyme to assay plates (with buffer only added to ‘no enzyme’ control wells) before the reaction was initiated with the addition of a 25 μl mix containing methionine, ATP and pyrophosphatase to all wells. Following a 120 min reaction at room temperature the assay was stopped with the addition of 50 μl BIOMOL® Green. The BIOMOL® Green signal was allowed to develop for 30 min before the absorbance of each well was read at 650 nm using an EnVision multilabel plate reader (PerkinElmer Life Sciences). All liquid dispensing steps were carried out using a Thermo Scientific WellMate dispenser (Matrix).
ActivityBase from IDBS (version 8.0.5.4) was used for data processing and analysis. All IC50 curve fitting was undertaken using ActivityBase XE (version 7.7.1) from IDBS. A four-parameter logistic dose-response curve was utilized with prefit used for all four parameters.
For DDD806905 Kiapp determinations, data fitting to the Morrison equation (equation 3) was carried out using GraFit v6.0 (Erithacus Software). It should be noted that data for fitting to the Morrison equation was normalised to a ‘100 µM DDD806905’ control rather than a ‘no enzyme’ control as […]
Equation 3 (Morrison equation): […]
vi = K1 −−([ ] [ ]ET+IT+Ki)−([ ] [ ]ET+IT+i)[ ] [ ]TIE4T
LdMetRS Mode of Inhibition Studies
To establish the mode of inhibition of DDD806905, data sets (generated using the BIOMOL® Green assay platform previously described) were collected by varying both the inhibitor and substrate concentrations. Using GraFit v6.0 (Erithacus Software) each data set was individually fitted to the Michaelis-Menten equation or the modified high substrate inhibition Michaelis-Menten equation described above (equation 2), and the resulting Lineweaver-Burk plots were examined for diagnostic […]
Data sets were then globally fitted to the appropriate model (with equations 4 and 5 used for […]
If more than one model appeared possible, then data were fitted to both and examined for significance using the F-test function in GraFit.

Chain of LdMetRS (A0A3Q8IBX2 entry or part of it): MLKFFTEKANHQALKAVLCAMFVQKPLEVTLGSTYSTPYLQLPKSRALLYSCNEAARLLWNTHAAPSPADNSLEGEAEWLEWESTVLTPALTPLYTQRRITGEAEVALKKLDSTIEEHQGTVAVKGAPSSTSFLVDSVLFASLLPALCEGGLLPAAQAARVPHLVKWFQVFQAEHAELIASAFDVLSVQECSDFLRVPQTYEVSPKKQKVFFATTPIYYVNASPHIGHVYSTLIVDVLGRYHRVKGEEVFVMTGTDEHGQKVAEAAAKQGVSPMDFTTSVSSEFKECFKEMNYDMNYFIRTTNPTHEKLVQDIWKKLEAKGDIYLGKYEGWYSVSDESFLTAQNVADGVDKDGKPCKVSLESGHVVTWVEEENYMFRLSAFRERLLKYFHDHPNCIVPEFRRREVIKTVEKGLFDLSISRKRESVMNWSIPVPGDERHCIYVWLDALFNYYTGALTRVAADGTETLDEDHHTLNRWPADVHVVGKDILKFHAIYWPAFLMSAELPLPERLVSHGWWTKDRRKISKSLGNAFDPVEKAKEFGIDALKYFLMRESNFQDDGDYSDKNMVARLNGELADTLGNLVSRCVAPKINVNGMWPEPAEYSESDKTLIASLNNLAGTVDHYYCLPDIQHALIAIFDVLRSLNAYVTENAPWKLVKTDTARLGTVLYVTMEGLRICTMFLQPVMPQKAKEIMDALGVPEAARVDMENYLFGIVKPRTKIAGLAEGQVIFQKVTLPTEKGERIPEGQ

## Cl.Cl.O=c1nc(NCCCNCc2cc3c(Cl)cc(Cl)cc3[nH]2)[nH]c2ccccc12 [DDD806905, 2-((3-(((4,6-dichloro-1H-indol-2-yl)methyl)amino)propyl)amino)quinazolin-4(1H)-one dihydrochloride]
  mode of inhibition with respect to ATP: mixed inhibition
  mode of inhibition with respect to methionine: competitive inhibition
Ki app (Morrison equation), active enzyme concentration 39 nM as constant
  Ki: 41 nM
Ki, competitive inhibition with respect to methionine, global competitive inhibition model, Ki ± SE
  Ki: 18 nM
Ki, mixed inhibition with respect to ATP, mixed inhibition model, Ki ± SE
  Ki: 21 nM
LdMetRS IC50 (μM), Table 1
  IC50: 0.09 µM
LdMetRS IC50, 50 nM LdMetRS, 50 μM methionine, 100 μM ATP
  IC50: 0.094 µM
LdMetRS IC50, Fig S5A: methionine 50 µM, ATP 500 µM
  IC50: 0.11 µM
LdMetRS IC50, Fig S5A: methionine 500 µM, ATP 500 µM
  IC50: 0.433 µM
LdMetRS IC50, Fig S5B: ATP 50 µM, methionine 500 µM
  IC50: 0.098 µM
LdMetRS IC50, Fig S5B: ATP 500 µM, methionine 500 µM
  IC50: 0.38 µM
LdMetRS IC50, Fig S5C: methionine and ATP both 50 µM
  IC50: 0.037 µM
LdMetRS IC50, Fig S5C: methionine and ATP both 500 µM
  IC50: 0.433 µM
Mixed inhibition model, ATP as variable substrate
  Ki′ (ATP mode of inhibition study): 227 ± 23 nM
